Data reported in ChEMBL document CHEMBL1137659, “Molecular epidemiology of clinical isolates of carbapenem-resistant Acinetobacter spp. from Chinese hospitals” (2007).
Values after ≈ are worked out from the molar mass of the structure shown.

Key:
Acinetobacter baumannii [1] = assay: Antimicrobial activity against imipenem and meropenem-resistant Acinetobacter baumannii isolate BJ55 by CLSI agar dilution method; assay type: functional
[2] = tested on: Acinetobacter phenon 6/ct 13TU; assay: Antimicrobial activity against imipenem and meropenem-resistant Acinetobacter phenon 6/ct 13TU isolate FZ4A18 by CLSI agar dilution method
Acinetobacter baumannii [3] = assay: Antimicrobial activity against imipenem and meropenem-resistant Acinetobacter baumannii isolate ZJ58 by CLSI agar dilution method; assay type: functional
Acinetobacter baumannii [4] = assay: Antimicrobial activity against imipenem and meropenem-resistant Acinetobacter baumannii isolate PU4A1 by CLSI agar dilution method; assay type: functional
Acinetobacter baumannii [5] = assay: Antimicrobial activity against imipenem and meropenem-resistant Acinetobacter baumannii isolate ZJ32 by CLSI agar dilution method; assay type: functional
Acinetobacter baumannii [6] = assay: Antimicrobial activity against imipenem and meropenem-resistant Acinetobacter baumannii isolate ZJ36 by CLSI agar dilution method; assay type: functional
[7] = tested on: Acinetobacter genospecies 10/11; assay: Antimicrobial activity against imipenem and meropenem-resistant Acinetobacter genospecies 10/11 isolate ZS5 by CLSI agar dilution method
Acinetobacter baumannii [8] = assay: Antimicrobial activity against imipenem and meropenem-resistant Acinetobacter baumannii isolate CY7 by CLSI agar dilution method; assay type: functional
[9] = tested on: Acinetobacter genospecies 10/11; assay: Antimicrobial activity against imipenem and meropenem-resistant Acinetobacter genospecies 10/11 isolate ZS15 by CLSI agar dilution method
[10] = tested on: Acinetobacter genospecies 3 (Acinetobacter genomosp. 3); assay: Antimicrobial activity against imipenem and meropenem-resistant Acinetobacter genospecies 3 isolate PU78 by CLSI agar dilution method; details: Acinetobacter genospecies 3, isolate PU78
[11] = tested on: Acinetobacter genospecies 13TU; assay: Antimicrobial activity against imipenem and meropenem-resistant Acinetobacter genospecies 13TU isolate CY6 by CLSI agar dilution method
Acinetobacter baumannii [12] = assay: Antimicrobial activity against imipenem and meropenem-resistant Acinetobacter baumannii isolate PU4A22 by CLSI agar dilution method; assay type: functional
Acinetobacter baumannii [13] = assay: Antimicrobial activity against imipenem and meropenem-resistant Acinetobacter baumannii isolate PU73 by CLSI agar dilution method; assay type: functional
Acinetobacter baumannii [14] = assay: Antimicrobial activity against imipenem and meropenem-resistant Acinetobacter baumannii isolate PUA1 by CLSI agar dilution method; assay type: functional
[15] = tested on: Acinetobacter phenon 6/ct 13TU (Acinetobacter sp.); assay: Antimicrobial activity against imipenem and meropenem-resistant Acinetobacter phenon 6/ct 13TU isolate PU86 by CLSI agar dilution method
Acinetobacter baumannii [16] = assay: Antimicrobial activity against imipenem and meropenem-resistant Acinetobacter baumannii isolate BJ3-23 by CLSI agar dilution method; assay type: functional
Acinetobacter baumannii [17] = assay: Antimicrobial activity against imipenem and meropenem-resistant Acinetobacter baumannii isolate FZ84 by CLSI agar dilution method; assay type: functional
Acinetobacter baumannii [18] = assay: Antimicrobial activity against imipenem and meropenem-resistant Acinetobacter baumannii isolate BJ3-9 by CLSI agar dilution method; assay type: functional
Acinetobacter phenon 5 = assay: Antimicrobial activity against imipenem and meropenem-resistant Acinetobacter phenon 5 isolate PUA6 by CLSI agar dilution method
Acinetobacter baumannii [19] = assay: Antimicrobial activity against imipenem and meropenem-resistant Acinetobacter baumannii isolate ZJ49 by CLSI agar dilution method; assay type: functional
Acinetobacter baumannii [20] = assay: Antimicrobial activity against imipenem and meropenem-resistant Acinetobacter baumannii isolate FW-F1 by CLSI agar dilution method; assay type: functional
[21] = tested on: Acinetobacter genospecies 3; assay: Antimicrobial activity against imipenem and meropenem-resistant Acinetobacter genospecies 3 isolate PUA7 by CLSI agar dilution method
Acinetobacter baumannii [22] = assay: Antimicrobial activity against imipenem and meropenem-resistant Acinetobacter baumannii isolate JN45 by CLSI agar dilution method; assay type: functional
Acinetobacter baumannii [23] = assay: Antimicrobial activity against imipenem and meropenem-resistant Acinetobacter baumannii isolate BJ52 by CLSI agar dilution method; assay type: functional
Acinetobacter baumannii [24] = assay: Antimicrobial activity against imipenem and meropenem-resistant Acinetobacter baumannii isolate DL34 by CLSI agar dilution method; assay type: functional
Acinetobacter baumannii [25] = assay: Antimicrobial activity against imipenem and meropenem-resistant Acinetobacter baumannii isolate NJ59 by CLSI agar dilution method; assay type: functional

| Compound | MIC (Acinetobacter baumannii [1]) | MIC [2] | MIC (Acinetobacter baumannii [3]) | MIC (Acinetobacter baumannii [4]) | MIC (Acinetobacter baumannii [5]) | MIC (Acinetobacter baumannii [6]) | MIC [7] | MIC (Acinetobacter baumannii [8]) | MIC [9] | MIC [10] | MIC [11] | MIC (Acinetobacter baumannii [12]) | MIC (Acinetobacter baumannii [13]) | MIC (Acinetobacter baumannii [14]) | MIC [15] | MIC (Acinetobacter baumannii [16]) | MIC (Acinetobacter baumannii [17]) | MIC (Acinetobacter baumannii [18]) | MIC (Acinetobacter phenon 5) | MIC (Acinetobacter baumannii [19]) | further results |
| --- | --- | --- | --- | --- | --- | --- | --- | --- | --- | --- | --- | --- | --- | --- | --- | --- | --- | --- | --- | --- | --- |
| C[C@H]1COc2c(N3CCN(C)CC3)c(F)cc3c(=O)c(C(=O)O)cn1c23.C[C@H]1COc2c(N3CCN(C)CC3)c(F)cc3c(=O)c(C(=O)O)cn1c23.O [LEVOFLOXACIN] | 16 mg/L | 0.12 mg/L | > 32 mg/L | 4 mg/L | 16 mg/L | 4 mg/L | > 32 mg/L | > 32 mg/L | 4 mg/L | 0.125 mg/L | 0.12 mg/L | 4 mg/L | 16 mg/L | 16 mg/L | 0.125 mg/L | 4 mg/L | > 32 mg/L | 4 mg/L | 0.06 mg/L | 4 mg/L | MIC (Acinetobacter baumannii [20]): 4 mg/L; MIC [21]: 0.06 mg/L; MIC (Acinetobacter baumannii [22]): 0.5 mg/L |
| CC(C)(O/N=C(\C(=O)N[C@@H]1C(=O)N2C(C(=O)[O-])=C(C[n+]3ccccc3)CS[C@H]12)c1csc(N)n1)C(=O)O [CEFTAZIDIME] | > 256 mg/L | > 256 mg/L | 16 mg/L (≈ 29.3 µM) | > 256 mg/L | 64 mg/L (≈ 117 µM) | 16 mg/L (≈ 29.3 µM) | > 256 mg/L | > 256 mg/L | 16 mg/L (≈ 29.3 µM) | 4 mg/L (≈ 7.32 µM) | > 256 mg/L | > 256 mg/L | > 256 mg/L | > 256 mg/L | > 256 mg/L | > 256 mg/L | > 256 mg/L | 8 mg/L (≈ 14.6 µM) | > 256 mg/L | 32 mg/L (≈ 58.5 µM) | MIC (Acinetobacter baumannii [23]): 16 mg/L (≈ 29.3 µM); MIC (Acinetobacter baumannii [24]): 64 mg/L (≈ 117 µM); MIC (Acinetobacter baumannii [25]): > 256 mg/L; MIC (Acinetobacter baumannii [20]): > 256 mg/L; MIC [21]: > 256 mg/L; MIC (Acinetobacter baumannii [22]): > 256 mg/L |
| NCC[C@H](O)C(=O)N[C@@H]1C[C@H](N)[C@@H](O[C@H]2O[C@H](CN)[C@@H](O)[C@H](O)[C@H]2O)[C@H](O)[C@H]1O[C@H]1O[C@H](CO)[C@@H](O)[C@H](N)[C@H]1O [AMIKACIN] | > 256 mg/L | 32 mg/L (≈ 54.6 µM) | 64 mg/L (≈ 109 µM) | > 256 mg/L | > 256 mg/L | 2 mg/L (≈ 3.42 µM) | > 256 mg/L | > 256 mg/L | 256 mg/L (≈ 437 µM) | 1 mg/L (≈ 1.71 µM) | 32 mg/L (≈ 54.6 µM) | 128 mg/L (≈ 219 µM) | > 256 mg/L | 8 mg/L (≈ 13.7 µM) | 4 mg/L (≈ 6.83 µM) | > 256 mg/L | > 256 mg/L | > 256 mg/L | 2 mg/L (≈ 3.42 µM) | 256 mg/L (≈ 437 µM) | MIC (Acinetobacter baumannii [23]): 2 mg/L (≈ 3.42 µM); MIC (Acinetobacter baumannii [24]): > 256 mg/L; MIC (Acinetobacter baumannii [25]): > 256 mg/L; MIC (Acinetobacter baumannii [20]): > 256 mg/L; MIC [21]: 4 mg/L (≈ 6.83 µM); MIC (Acinetobacter baumannii [22]): 128 mg/L (≈ 219 µM) |
| CO[C@H]1/C=C/O[C@@]2(C)Oc3c(C)c(O)c4c(O)c(c(/C=N/N5CCN(C)CC5)c(O)c4c3C2=O)NC(=O)/C(C)=C\C=C\[C@H](C)[C@H](O)[C@@H](C)[C@@H](O)[C@@H](C)[C@H](OC(C)=O)[C@@H]1C [RIFAMPIN] | 8 mg/L (≈ 9.72 µM) | 4 mg/L (≈ 4.86 µM) | 8 mg/L (≈ 9.72 µM) | 4 mg/L (≈ 4.86 µM) | 16 mg/L (≈ 19.4 µM) | 8 mg/L (≈ 9.72 µM) | 256 mg/L (≈ 311 µM) | 4 mg/L (≈ 4.86 µM) | > 256 mg/L | 4 mg/L (≈ 4.86 µM) | > 256 mg/L | 4 mg/L (≈ 4.86 µM) | 4 mg/L (≈ 4.86 µM) | 32 mg/L (≈ 38.9 µM) | 256 mg/L (≈ 311 µM) | 8 mg/L (≈ 9.72 µM) | 128 mg/L (≈ 156 µM) | 8 mg/L (≈ 9.72 µM) | > 256 mg/L | 8 mg/L (≈ 9.72 µM) | MIC (Acinetobacter baumannii [23]): 8 mg/L (≈ 9.72 µM); MIC (Acinetobacter baumannii [24]): 4 mg/L (≈ 4.86 µM); MIC (Acinetobacter baumannii [25]): 8 mg/L (≈ 9.72 µM); MIC (Acinetobacter baumannii [20]): 8 mg/L (≈ 9.72 µM); MIC [21]: 128 mg/L (≈ 156 µM); MIC (Acinetobacter baumannii [22]): > 256 mg/L |
